Data set [1] can be described thus: solubility of NDAC compared with cystine. It counts as physicochemical.
The next data set concerns skin cells. The experiment in a line: potentiating glutathione synthesis within skin cells. The settings on record: compared with cystine. It counts as cell-based.
For data set [2] the following is noted: organic solvents such as alcohols, ethers, esters, ketones; cited from earlier work.

Regarding `CC(=O)N[C@@H](CSSC[C@H](NC(C)=O)C(=O)O)C(=O)O` [NDAC, N,N′-diacetyl-L-Cystine], the “solubility relative to cystine” value in data set [1] is reported as “more soluble”. The “performance for potentiating glutathione synthesis within skin cells” value in the data set on skin cells is listed as “comparable to that of cystine”.
On to `N[C@@H](CSSC[C@H](N)C(=O)O)C(=O)O` [cystine, L-Cystine], for which the “solubility in organic solvents” value in data set [2] is reported as “practically insoluble”.

The values are drawn from patent US20230183176A1, “PROCESS OF MAKING N,N'-DIACETYL-L-CYSTINE” (Conopco, Inc., d/b/a UNILEVER, priority 2020, published 2023).
